Results taken from publication PMC5936756, “Ionizing Radiation Induces Morphological Changes and Immunological Modulation of Jurkat Cells” (Frontiers in Immunology, 2018).
pIC50: −log10 of the molar value.

Legend:
Jurkat cells [1] = assay: Cell cycle analysis by flow cytometry (PI DNA content, cells in G2); type: cell-based, human; conditions: non-irradiated Jurkat cells, 3 µM RO3306
Procedure: (§1) Cells were exposed to X-ray irradiation in cell culture flasks using an Isovolt 160 Titan E source with a voltage of 90 kV and 33.7 mA (GE Sensing & Inspection Technologies, Alzenau, Germany). Doses were delivered at a 30 cm source to probe distance with cell culture flasks placed on a 2 mm aluminum sheet. CDK1-inhibitor RO3306 (Axon Medchem, Groningen, Netherlands) was dissolved in DMSO at 14.2 mM and added to the cell culture medium in a final concentration of 3 µM. Cyclosporin A (Sigma-Aldrich) was dissolved in ddH2O and added to the cell culture medium of non-irradiated control cells or directly after irradiation of cells in a concentration of 1 µM. The cell permeable Ca^2+ buffer BAPTA-AM [1,2-Bis(2-aminophenoxy)ethane-N,N,N',N'-tetraacetic acid tetrakis(acetoxymethyl) ester, Thermo Fisher] was added to the cell culture medium 30 min prior to cell irradiation at 50 µM and was removed immediately after irradiation. […]
Flow cytometric analyses were performed after 48 h following irradiation with propidium iodide (PI) solution (4% PI stock, 0.5 mg/ml PI, 38 mM sodium citrate, pH 7), 5% RNAse A stock (RNAse A 5 mg/ml, Tris–HCl 10 mM, NaCl 15 mM, pH 7) using a BioRad S3 Cell Sorter and the FlowJo 10 software for analysis (FlowJo LLC). The percentage of cells in G2/M phases was determined by single-parameter histograms of DNA content.

Jurkat cells [2] = assay: Determination of cell diameter of Jurkat cells (EVE automatic cell counter); type: cell-based, human
Procedure: Cell diameters were measured with an EVE automatic cell counter (NanoEnTek, Seoul, South Korea). For cell diameter studies, a suitable protocol for Jurkat cells was established and all measurements were validated by visual inspection and if necessary corrected by hand using a personal computer based software. Viability was estimated by using trypan blue exclusion assays.
Cells were exposed to X-ray irradiation in cell culture flasks using an Isovolt 160 Titan E source with a voltage of 90 kV and 33.7 mA (GE Sensing & Inspection Technologies, Alzenau, Germany). Doses were delivered at a 30 cm source to probe distance with cell culture flasks placed on a 2 mm aluminum sheet. CDK1-inhibitor RO3306 (Axon Medchem, Groningen, Netherlands) was dissolved in DMSO at 14.2 mM and added to the cell culture medium in a final concentration of 3 µM. Cyclosporin A (Sigma-Aldrich) was dissolved in ddH2O and added to the cell culture medium of non-irradiated control cells or directly after irradiation of cells in a concentration of 1 µM. The cell permeable Ca^2+ buffer BAPTA-AM [1,2-Bis(2-aminophenoxy)ethane-N,N,N',N'-tetraacetic acid tetrakis(acetoxymethyl) ester, Thermo Fisher] was added to the cell culture medium 30 min prior to cell irradiation at 50 µM and was removed immediately after irradiation. Phytohemagglutinin (PHA-L) was purchased from Biochrom (Berlin, Germany). Cells were treated for 48 h by adding PHA-L to the cell culture medium at a concentration of 7.2 µg/ml. To activate human T-cells ImmunoCult™ Human CD3/CD28/CD2 T Cell Activator (Stem cell Technologies, Vancouver, BC, Canada) was added to the cell culture medium (25 µL per 1 mL of cell suspension) and maintained at 37°C and 5% CO2 for 48 h. The KCa2.2-specific ion channel blocker Tamapin was purchased from Alomone Labs (Jerusalem, Israel) and dissolved in purified water and diluted in external solution for patch clamp experiments.

KCa2.2 channels [3] = conditions: cited from earlier work
KCa2.2 channels [4] = target: T1, KCa2.2 channels (Homo sapiens, UniProt Q9H2S1); assay: Whole cell patch clamp recording of background current Ib in Jurkat cells; type: cell-based; conditions: Tamapin 10 nM
T1 construct: This small current includes, among others, the voltage independent small conductance K^+ channel KCa2.2; endogenous in cells; host or cells: Jurkat cells (ACC 282, DSMZ)
Procedure: as §1, with “irradiation. Phytohemagglutinin (PHA-L) was purchased from Biochrom (Berlin, Germany). Cells were treated for 48 h by adding PHA-L to the cell culture medium at a concentration of 7.2 µg/ml.” for “irradiation.”
Membrane currents of cells were recorded in a whole cell configuration ([26]) using an EPC-9 amplifier (HEKA Electronics, Lambrecht, Germany). […] Currents were recorded and data analyzed with an EPC-9 amplifier and Patchmaster Software (all from Heka Electronic).

[5] = test system: peripheral blood lymphocytes (PBL); assay: Determination of cell diameter of PBL after mitogen stimulation; type: cell-based, human; conditions: PHA-L 7.2 µg/ml, 48 h
Procedure: Jurkat cells (ACC 282) were purchased from the German Collection of Microorganisms and Cell Cultures (DSMZ, Braunschweig, Germany). The human EC line EA.hy926 (Crl-2922) was established by fusion of human umbilical vein ECs and the adenocarcinoma epithelial cell line A549 ([18]) and was purchased from ATCC (LGC Standards, Wesel, Germany). Cells were either grown in RPMI 1640 medium (Jurkat), supplemented with 10% heat inactivated fetal calf serum (FCS; PAA, Cölbe, Germany) and 2 mM L-glutamine or in Dulbecco’s modified Eagle’s medium (Invitrogen, Karlsruhe, Germany), supplemented with 10% FCS 50 U/ml penicillin and 5 µg/ml streptomycin (Sigma-Aldrich, Munich, Germany). PBL were isolated from buffy coats using density gradient centrifugation (Biochrom, Berlin, Germany). After centrifugation (40 min at 1,000 × g, RT) interphase cells were isolated, washed twice with PBS, and pelleted by centrifugation (300 × g, 10 min). For adhesion assays, Jurkat cells and PBL were biotinylated by incubation (15 min on ice) with a biotin-N-hydroxysuccinimid ester (NHS-biotin, 10 mg/ml, Sigma-Aldrich) and maintained in RPMI 1640 Medium with 20% FCS, 1% HEPES, and 1% penicillin/streptomycin prior to assays. […]
Cell diameters were measured with an EVE automatic cell counter (NanoEnTek, Seoul, South Korea). […]

T1 sequence (Q9H2S1 whole entry): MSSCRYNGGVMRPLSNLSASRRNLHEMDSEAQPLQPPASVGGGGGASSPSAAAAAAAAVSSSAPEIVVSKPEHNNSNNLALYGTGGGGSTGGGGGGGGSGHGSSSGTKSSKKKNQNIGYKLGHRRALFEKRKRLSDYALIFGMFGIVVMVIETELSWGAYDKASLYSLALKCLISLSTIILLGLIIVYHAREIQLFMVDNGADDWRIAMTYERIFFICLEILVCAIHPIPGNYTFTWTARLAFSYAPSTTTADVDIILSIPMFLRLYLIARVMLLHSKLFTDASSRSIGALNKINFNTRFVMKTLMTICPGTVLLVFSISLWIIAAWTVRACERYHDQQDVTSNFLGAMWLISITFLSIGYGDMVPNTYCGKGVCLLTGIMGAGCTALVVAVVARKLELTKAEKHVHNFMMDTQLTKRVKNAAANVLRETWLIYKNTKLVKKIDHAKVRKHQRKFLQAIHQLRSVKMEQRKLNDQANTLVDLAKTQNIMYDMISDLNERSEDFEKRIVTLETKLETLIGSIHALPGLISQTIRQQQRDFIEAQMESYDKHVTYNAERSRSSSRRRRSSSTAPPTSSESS

Question: Which results are given for `O=C1NC(=NCc2cccs2)S/C1=C\c1ccc2ncccc2c1` [RO3306]?
Answer: cells arrested in G2 phase (Jurkat cells [1]): 71%; increase in cell diameter (Jurkat cells [2]; non-irradiated Jurkat cells, 3 µM RO3306): 9.6 ± 3%

Question: What does the source list for `CC(=O)OCOC(=O)CN(CC(=O)OCOC(C)=O)c1ccccc1OCCOc1ccccc1N(CC(=O)OCOC(C)=O)CC(=O)OCOC(C)=O` [BAPTA-AM, 1,2-Bis(2-aminophenoxy)ethane-N,N,N',N'-tetraacetic acid tetrakis(acetoxymethyl) ester]?
Answer: effect on radiation-induced increase in cell diameter (Jurkat cells [2]; Jurkat cells irradiated with 2 Gy, cyclosporine A 1 µM or BAPTA-AM 50 µM): decreased the effect of irradiation; reduction of the radiation-induced cell diameter increase (Jurkat cells [2]; irradiated Jurkat cells, cyclosporine A 1 µM or BAPTA-AM 50 µM): 50%

Question: With “Tamapin: scorpion toxin, KCa2.2-specific ion channel blocker (Alomone Labs) (AFCNLRRCELSCRSLGLLGKCIGEECKCVPY; UniProt P59869 1-31, looked up)” as the compound, how does the pIC50 (KCa2.2 channels [3]) read?
Answer: 10.62

Question: What about the “inhibition of Ib” value (KCa2.2 channels [4]; irradiated Jurkat cells (1.25 Gy, 48 h after X-ray)) of the same compound?
Answer: 23 ± 10%

Question: What about the “inhibition of Ib” value (KCa2.2 channels [4]; mock-irradiated control Jurkat cells, N = 3) of the same compound?
Answer: 3.3 ± 0.7%

Question: Which results are given for Phytohemagglutinin [PHA-L]?
Answer: fraction of cells with increased mean size ([5]; PBL from healthy donors, fit with two Gaussians): 45%; mean size (diameter) of the enlarged cell population ([5]; PBL, mock treated 7.2 µm): 10.2 µm
